Measured values taken from patent US4472387A, “Pharmaceutical compositions capable of increasing cerebral serotonin concentration” (Panmedica S.A., priority 1981, dated 1984).
Structures can show the parent of a compound that is named as a salt.

Tests used:
[1] = system: cerebral metabolism of serotonin; assay: Percent increase in cerebral endogenic level of 5-HTP, 5-HT and 5-HIAA in the rat after intragastric administration; type: in vivo; conditions: 1 hour
Description: This study, carried out in the rat, determined the efficacy of the compositions according to the present invention on the cerebral metabolism of serotonin and established the potentiation of the serotoninogenic effect with respect to the reference (L)-5-HTP. (Purine, pyrimidine, and pyridine bases are, of themselves, entirely devoid of this activity.)
The animals were male adult rats of the OFA stain weighing 160 to 180 g. They were subjected to an alternating light cycle of 12 hours of light and 12 hours of darkness.
The various derivatives according to the invention were administered in distilled water intragastically at doses of 10, 25, and 50 mg/kg. After one hour, the rats were decapitated; and the contents of 5-hydroxytryptamine (5-HT), of 5-HIAA, and of 5-hydroxytryptophane in the brains were determined by the methods published by G. Curzon and Cool, [Brit. J. Pharmaco., 39, 653 (1970)].
They represent the percentage increase of cerebral endogenic levels at 10, 25, 50 mg/kg of the pure (L)-5-HTP (control) and of compositions according to the present invention for a given batch of control rats.

[2] = system: blood levels of 5-HTP and 5-hydroxyindolacetic acid (5-HIAA); assay: Clinical results: blood levels of 5-HTP and 5-HIAA; type: in vivo; conditions: for blood levels of 5-HTP / blood levels of 5-hydroxyindolacetic acid (5-HIAA): clinical results; for blood levels of 5-hydroxyindolacetic acid (5-HIAA): principal metabolite of serotonin
Description: In interpreting the clinical results of these remarkable medicaments, the applicants have observed that a complex of inosine with 5-HTP, particularly a complex of inosine with (L)-5-HTP, triples the blood levels of 5-HTP and 5-hydroxyindolacetic acid (5-HIAA), the principal metabolite of serotonin.

mice = assay: Toxicity, LD50 per os/mice; type: in vivo
Description: (§1) The toxicities of the salts and the complexes of 5-HTP according to the present invention are very low as witnessed by the LD50 's per os/mice assembled in Table 2 below: […]

[3] = prolonged administration of high doses; cited from earlier work
cerebral serotonin = conditions: 5-HTP alone; cited from earlier work
[4] = Toxicity, LD50 per os/mice; type: in vivo; conditions: mouse, in vivo, po, mice
Description: as §1

[5] = system: receptors of benzodiazepines; conditions: P. Skolnick, 1979; cited from earlier work

Compound | Percent increase in cerebral endogenic level of 5-HIAA ([1]; 10 mg/kg) [%] | Percent increase in cerebral endogenic level of 5-HT ([1]; 10 mg/kg) [%] | Percent increase in cerebral endogenic level of 5-Ht + 5-HIAA ([1]; 10 mg/kg) [%] | Percent increase in cerebral endogenic level of (L)-5-HTP ([1]; 10 mg/kg) [%] | Percent increase in cerebral endogenic level of 5-HIAA ([1]; 25 mg/kg) [%] | Percent increase in cerebral endogenic level of 5-HT ([1]; 25 mg/kg) [%] | Percent increase in cerebral endogenic level of 5-Ht + 5-HIAA ([1]; 25 mg/kg) [%] | Percent increase in cerebral endogenic level of (L)-5-HTP ([1]; 25 mg/kg) [%] | Percent increase in cerebral endogenic level of 5-HIAA ([1]; 50 mg/kg) [%] | Percent increase in cerebral endogenic level of 5-HT ([1]; 50 mg/kg) [%] | Percent increase in cerebral endogenic level of 5-Ht + 5-HIAA ([1]; 50 mg/kg) [%] | Percent increase in cerebral endogenic level of (L)-5-HTP ([1]; 50 mg/kg) [%] | other results
NC(Cc1c[nH]c2ccc(O)cc12)C(=O)O.O.O=c1[nH]cnc2c1ncn2[C@@H]1O[C@H](CO)[C@@H](O)[C@H]1O (racemic) [Example 2, (DL) 5-HYDROXYTRYPTOPHANE INOSINATE] | 135 | 2 | 85 | 110 | 345 | 80 | 220 | 1665 | 1190 | 110 | 700 | 1955 | 
N[C@H](Cc1c[nH]c2ccc(O)cc12)C(=O)O [(D)-5-HTP, reference compound] |  |  |  |  |  |  |  |  |  |  |  |  | activity ([2]; pharmacological response): almost entire absence of activity
N[C@@H](Cc1c[nH]c2ccc(O)cc12)C(=O)O [(L)-5-HTP pure, (L)-5-hydroxytryptophane, reference compound] | 40 | 10 | 55 | 120 | 110 | 25 | 110 | 260 | 300 | 35 | 180 | 650 | 
N[C@@H](Cc1c[nH]c2ccc(O)cc12)C(=O)O.O.O=c1[nH]cnc2c1ncn2[C@@H]1O[C@H](CO)[C@@H](O)[C@H]1O [Example 1, (L)-5-HTP INOSINATE] | 165 | 2 | 100 | 135 | 290 | 100 | 195 | 1755 | 1010 | 70 | 545 | 2665 | blood levels of 5-HTP [2]: triples; blood levels of 5-hydroxyindolacetic acid (5-HIAA) [2]: triples
N[C@@H](Cc1c[nH]c2ccc(O)cc12)C(=O)O [Example 4, THEOPHYLLINE SALT OF (L)-5-HYDROXYTRYPTOPHANE] | 85 |  | 75 | 55 | 270 | 25 | 150 | 1200 | 870 | 35 | 490 | 1710 | LD50 per os (mice): 1000 mg/kg; solubility (Aqueous solubility; water): 3500 µg/mL
N[C@@H](Cc1c[nH]c2ccc(O)cc12)C(=O)O [Example 5-HTP, 5-hydroxytryptophane] |  |  |  |  |  |  |  |  |  |  |  |  | renal lesions [3]: often results in renal lesions; decarboxylation at the peripheral level (cerebral serotonin): considerable decarboxylation; hepatic catabolism (cerebral serotonin): high hepatic catabolism; overall yield of cerebral serotonin synthesized with respect to the amount of 5-hydroxytryptophane administered (cerebral serotonin): very low; passage of the gastrointestinal and hematoencephalic barriers (cerebral serotonin): mediocre passage
Cc1ncc(CO)c(CO)c1O.Cl.N[C@@H](Cc1c[nH]c2ccc(O)cc12)C(=O)O [Example 7, EQUIMOLECULAR COMPLEX OF PYRIDOXINE WITH (L)-5-HYDROXYTRYPTOPHANE] | 35 | 20 | 40 | 190 | 230 | 80 | 165 | 420 | 755 | 25 | 390 | 2500 | 
N[C@@H](Cc1c[nH]c2ccc(O)cc12)C(=O)O [Example 10, NI[…] OF (L)-5-HYDROXYTRYPTOPHANE] |  |  |  |  |  |  |  |  |  |  |  |  | LD50 [4]: > 2000 mg/kg
N[C@@H](Cc1c[nH]c2ccc(O)cc12)C(=O)O [Example 12, CAFFEINE SALT OF (L)-5-HYDROXYTRYPTOPHANE] |  |  |  |  |  |  |  |  |  |  |  |  | LD50 per os (mice): > 2000 mg/kg
NC(Cc1c[nH]c2ccc(O)cc12)C(=O)O.O=c1[nH]cnc2c1ncn2C1OC(CO)C(O)C1O (stereo not shown) [complex of inosine with 5-HTP] |  |  |  |  |  |  |  |  |  |  |  |  | blood levels of 5-HTP [2]: triples; blood levels of 5-hydroxyindolacetic acid (5-HIAA) [2]: triples
O=c1[nH]cnc2nc[nH]c12 [hypoxanthine, 1,7-dihydropurine-6-one] |  |  |  |  |  |  |  |  |  |  |  |  | endogenous ligands of receptors of benzodiazepines [5]: can constitute endogenous ligands of receptors of benzodiazepines
O=c1[nH]cnc2c1ncn2[C@@H]1O[C@H](CO)[C@@H](O)[C@H]1O [inosine, 9-β-D-ribofuranosylhypoxanthine] |  |  |  |  |  |  |  |  |  |  |  |  | endogenous ligands of receptors of benzodiazepines [5]: can constitute endogenous ligands of receptors of benzodiazepines
EQU[…] OF (L)-5-HYDROXYT[…] OF ALLOPURINOL [Example 5] | 90 | 15 | 60 | 108 | 100 | 70 | 85 | 830 | 765 | 115 | 475 | 2100 | LD50 per os (mice): 1000 mg/kg
EQU[…] OF […] (DL)-5-HYDROXYTRYPTOPHANE [Example 6] | 20 |  | 8 | 115 | 90 | 30 | 65 | 230 | 360 | 60 | 210 | 1575 | solubility in water (Aqueous solubility; in words): very soluble in water
